Measured values from patent US10988477B2 (Merck Patent GmbH, priority 2018, dated 2021).
pIC50, pKi: −log10 of the molar value.

Assays:
[1] = biological target: intracellular GCN2 (phosphorylation of the GCN2 substrate eIF2α) (Homo sapiens, UniProt Q9P2K8); assay: GCN2 cellular inhibition assay (AlphaScreen SureFire P-eIF2α Ser51, borrelidin-treated U2OS cells); format: cell-based; settings: biomarker assay, phosphorylated eIF2α Ser51 in borrelidin-treated U2OS cells
Description: Compounds can be screened for their ability to inhibit intracellular GCN2 using an AlphaScreen assay (Perkin Elmer) to detect phosphorylation of the GCN2 substrate eIF2α in borrelidin-treated cells. U2OS cells are plated at 5,000 cells per well in 384-well white polystyrene plates (Corning 3570) in McCoy's 5 A media (GIBCO 26600-023) supplemented with 10% foetal bovine serum (SAFC 12103C), Penicillin/Streptomycin solution diluted 1:100 (Sigma P0781), and 2 mM L-glutamine (Sigma G7513), and allowed to adhere overnight at 37° C. in 5% CO2. Compounds are then added to the cell media from a final concentration of 40 μM in 4-fold serial dilutions. Borrelidin (FluoroChem M01440) is immediately added to the wells to a final concentration of 10 μM and the cells are incubated for 1 h at 37° C. in 5% CO2. After 1 h of treatment with borrelidin, the media is removed, and the cells are lysed with lysis buffer (TGR BioSciences TGRLB) at ambient temperature.
An AlphaScreen SureFire P-eIF2α (Ser51) assay kit (Perkin Elmer TGREIF2S) was used to measure levels of eIF2α phosphorylated on Serine 51. Anti-phosphorylated eIF2α Ser51 antibody-linked acceptor beads (TGR BioScience 6760617) are added to the cell homogenate (diluted 1:250 into a mixture of activation (TGR BioScience TGRAB) and reaction buffer (TGR BioScience TGREIF2S) prepared immediately before use). The plate is then incubated for 2 h at ambient temperature in the dark. Anti-eIF2α antibody-linked donor beads (TGR BioScience 6760617) were then added (diluted 1:100 in dilution buffer (TGR BioScience TGRDB) prepared immediately before use). The plate is then incubated overnight at ambient temperature in the dark.
Plates are analyzed on an Alpha Technology-compatible PHERAstar FS plate reader (BMG Labtech Version 1.14) to quantify phosphorylated eIF2α Ser51 levels. The percentage inhibition of phosphorylated eIF2α is calculated by comparison to control wells stimulated with borrelidin alone.

GCN2 kinase = GCN2 kinase (Homo sapiens, UniProt Q9P2K8); assay: GCN2 enzyme inhibition assay (Transcreener ADP2 fluorescence polarization); format: biochemical; settings: 280 μM ATP
Sequence of GCN2 kinase (Q9P2K8 whole entry): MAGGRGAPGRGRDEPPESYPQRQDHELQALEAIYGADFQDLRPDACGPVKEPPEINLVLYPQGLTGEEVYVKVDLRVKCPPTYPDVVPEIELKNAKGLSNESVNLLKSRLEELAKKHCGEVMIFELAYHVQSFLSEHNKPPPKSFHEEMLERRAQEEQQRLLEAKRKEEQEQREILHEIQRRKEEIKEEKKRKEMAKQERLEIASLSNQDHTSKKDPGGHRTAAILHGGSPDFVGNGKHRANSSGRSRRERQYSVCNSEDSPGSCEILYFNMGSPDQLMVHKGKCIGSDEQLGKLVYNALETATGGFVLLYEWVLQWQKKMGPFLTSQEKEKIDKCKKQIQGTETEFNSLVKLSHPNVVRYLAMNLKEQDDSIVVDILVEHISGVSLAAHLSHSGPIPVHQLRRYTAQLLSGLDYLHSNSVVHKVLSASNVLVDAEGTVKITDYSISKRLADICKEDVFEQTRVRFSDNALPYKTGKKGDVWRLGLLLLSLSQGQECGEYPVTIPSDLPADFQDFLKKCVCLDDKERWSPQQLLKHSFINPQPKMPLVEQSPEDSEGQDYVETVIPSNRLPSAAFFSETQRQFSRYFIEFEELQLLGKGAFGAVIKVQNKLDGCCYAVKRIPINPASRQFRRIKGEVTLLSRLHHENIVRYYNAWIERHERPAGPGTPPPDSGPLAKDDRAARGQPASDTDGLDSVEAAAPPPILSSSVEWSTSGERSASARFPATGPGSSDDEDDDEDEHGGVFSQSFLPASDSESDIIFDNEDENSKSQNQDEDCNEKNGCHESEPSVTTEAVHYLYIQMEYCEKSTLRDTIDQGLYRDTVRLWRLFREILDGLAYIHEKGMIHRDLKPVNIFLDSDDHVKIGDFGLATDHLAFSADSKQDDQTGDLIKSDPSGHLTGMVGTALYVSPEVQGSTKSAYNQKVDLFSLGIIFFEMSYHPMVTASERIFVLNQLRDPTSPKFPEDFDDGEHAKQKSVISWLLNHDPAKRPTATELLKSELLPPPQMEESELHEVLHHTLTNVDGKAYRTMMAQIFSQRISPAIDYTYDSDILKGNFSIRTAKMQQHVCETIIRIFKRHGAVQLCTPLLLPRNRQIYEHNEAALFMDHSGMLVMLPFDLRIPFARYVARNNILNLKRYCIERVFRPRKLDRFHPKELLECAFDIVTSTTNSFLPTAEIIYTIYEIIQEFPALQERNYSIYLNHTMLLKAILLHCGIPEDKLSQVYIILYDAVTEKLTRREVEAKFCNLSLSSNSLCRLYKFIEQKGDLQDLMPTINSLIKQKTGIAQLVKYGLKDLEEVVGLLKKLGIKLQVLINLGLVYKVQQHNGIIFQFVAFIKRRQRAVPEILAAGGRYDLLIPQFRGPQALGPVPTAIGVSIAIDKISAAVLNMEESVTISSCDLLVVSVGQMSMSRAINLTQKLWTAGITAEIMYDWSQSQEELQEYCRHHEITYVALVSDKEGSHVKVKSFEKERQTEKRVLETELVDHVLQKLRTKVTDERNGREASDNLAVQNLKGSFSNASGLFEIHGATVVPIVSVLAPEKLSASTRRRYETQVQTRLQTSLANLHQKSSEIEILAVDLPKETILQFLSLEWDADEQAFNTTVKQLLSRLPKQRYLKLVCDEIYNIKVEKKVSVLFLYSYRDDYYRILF
How it was run: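 Run at 25 °C in 25 mM Tris-HCl pH 7.5, 50 mM NaCl, 10 mM MgCl2, 1 mM DTT with 4 nM GCN2, 280 μM ATP and 200 μM (RS)7 peptide; compound (0–8 μM final) preincubated 10 min, reaction 1 h. ADP read by antibody/tracer FP; IC50 and Ki(app) from tight-binding fit.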

[2] = compounds of Formula II, 4 nM GCN2 kinase
[3] = Enzyme activity for compounds of Formula IV, Ki(app), 25° C.

Sequence of intracellular GCN2 (phosphorylation of the GCN2 substrate eIF2α) (Q9P2K8 whole entry): as above

| pIC50 ([1]; compounds of Formula II) | pKi (GCN2 kinase; [2]) | pIC50 ([1]; compounds of Formula IV) | pKi (GCN2 kinase; [3]) | Compound |
| --- | --- | --- | --- | --- |
| – | – | 5.30 to 6.30 | > 8.00 | N#Cc1n[nH]cc1C1=CCCN(c2ccnc(-c3cnc4cnc(C(F)(F)F)cn34)n2)C1 [IV-548, 4-(1-(2-(6-(Trifluoromethyl)imidazo[1,2-a]pyrazin-3-yl)pyrimidin-4-yl)-1,2,5,6-tetrahydropyridin-3-yl)-1H-pyrazole-3-carbonitrile] |
| – | – | < 5.30 | 6.00 to 7.00 | CC(C)(C)OC(=O)N1CCC2CCN(c3ccnc(-c4cnc5cnc(C(F)F)cn45)n3)CC21 (centres unmarked) [IV-132, tert-Butyl 6-(2-(6-(difluoromethyl)imidazo[1,2-a]pyrazin-3-yl)pyrimidin-4-yl)octahydro-1H-pyrrolo[2,3-c]pyridine-1-carboxylate] |
| – | – | 5.30 to 6.30 | > 8.00 | COC1CC(c2cn[nH]c2)CN(c2ccnc(-c3cnc4cnc(C(F)(F)F)cn34)n2)C1 (centres unmarked) [IV-396, 3-(4-(3-Methoxy-5-(1H-pyrazol-4-yl)piperidin-1-yl)pyrimidin-2-yl)-6-(trifluoromethyl)imidazo[1,2-a]pyrazine] |
| – | – | > 6.30 | > 8.00 | C[C@H]1[C@@H](c2cn[nH]c2)NCCN1c1ccnc(-c2cnc3cnc(Br)cn23)n1 (racemic) [IV-343, Cis-6-Bromo-3-(4-(2-methyl-3-(1H-pyrazol-4-yl)piperazin-1-yl)pyrimidin-2-yl)imidazo[1,2-a]pyrazine] |
| – | – | < 5.30 | 6.00 to 7.00 | CC1CCCN(c2ccnc(-c3cnc4cnc(C(F)(F)F)cn34)n2)C1 (centres unmarked) [IV-424, 3-(4-(3-Methylpiperidin-1-yl)pyrimidin-2-yl)-6-(trifluoromethyl)imidazo[1,2-a]pyrazine] |
| – | – | 5.30 to 6.30 | > 8.00 | CC1CN(c2nccc(-c3cnc4cnc(C(F)(F)F)cn34)n2)CC(c2cn[nH]c2)O1 (single isomer, unassigned) [IV-200, 2-Methyl-6-(1H-pyrazol-4-yl)-4-(4-(6-(trifluoromethyl)imidazo[1,2-a]pyrazin-3-yl)pyrimidin-2-yl)morpholine] |
| – | – | < 5.30 | 6.00 to 7.00 | Cc1[nH]ncc1C1CN(c2ccnc(-c3cnc4cnc(C(F)F)cn34)n2)CC(C)N1 (single isomer, unassigned) [IV-463, 6-(Difluoromethyl)-3-(4-(3-methyl-5-(5-methyl-1H-pyrazol-4-yl)piperazin-1-yl)pyrimidin-2-yl)imidazo[1,2-a]pyrazine] |
| – | – | < 5.30 | 7.00 to 8.00 | Cc1cn2c(-c3nccc(N4CCNC(c5cn[nH]c5)C4C)n3)cnc2cn1 (centres unmarked) [IV-398, 6-Methyl-3-(4-(2-methyl-3-(1H-pyrazol-4-yl)piperazin-1-yl)pyrimidin-2-yl)imidazo[1,2-a]pyrazine] |
| – | – | < 5.30 | 7.00 to 8.00 | CC1(c2n[nH]cc2C2CCN(c3ccnc(-c4cnc5cnc(C(F)(F)F)cn45)n3)C2)CC1 (centres unmarked) [IV-630, 3-(4-(3-(3-(1-Methylcyclopropyl)-1H-pyrazol-4-yl)pyrrolidin-1-yl)pyrimidin-2-yl)-6-(trifluoromethyl)imidazo[1,2-a]pyrazine] |
| – | – | < 5.30 | 7.00 to 8.00 | CP(C)(=O)C1CC(c2cn[nH]c2)CN(c2ccnc(-c3cnc4cnc(C(F)(F)F)cn34)n2)C1 (single isomer, unassigned) [IV-633, (5-(1H-Pyrazol-4-yl)-1-(2-(6-(trifluoromethyl)imidazo[1,2-a]pyrazin-3-yl)pyrimidin-4-yl)piperidin-3-yl)dimethylphosphine oxide] |
| – | – | > 6.30 | > 8.00 | CC1CN(c2ccnc(-c3cnc4cnc(C#N)cn34)n2)CC(c2cn[nH]c2)O1 (centres unmarked) [IV-194, 3-(4-(2-Methyl-6-(1H-pyrazol-4-yl)morpholino)pyrimidin-2-yl)imidazo[1,2-a]pyrazine-6-carbonitrile] |
| – | – | > 6.30 | > 8.00 | CC(C)(O)C1CC(c2cn[nH]c2)CN(c2ccnc(-c3cnc4cnc(C(F)(F)F)cn34)n2)C1 (single isomer, unassigned) [IV-685, 2-(5-(1H-Pyrazol-4-yl)-1-(2-(6-(trifluoromethyl)imidazo[1,2-a]pyrazin-3-yl)pyrimidin-4-yl)piperidin-3-yl)propan-2-ol] |

Second part, the compound before the results:

| Compound | pIC50 ([1]; compounds of Formula II) | pKi (GCN2 kinase; [2]) | pIC50 ([1]; compounds of Formula IV) | pKi (GCN2 kinase; [3]) |
| --- | --- | --- | --- | --- |
| CS(=O)(=O)NC[C@@H]1CN(c2cc(-c3cnc4ccc(C(F)F)nn34)ncn2)CCO1 [II-34, (S)—N-((4-(6-(6-(Difluoromethyl)imidazo[1,2-b]pyridazin-3-yl)pyrimidin-4-yl)morpholin-2-yl)methyl)methanesulfonamide] | > 6.30 | > 8.00 | – | – |
| CS(=O)(=O)NC1CCC2(CCN(c3cc(-c4cnc5ccc(C(F)F)nn45)ncn3)C2)C1 (single isomer, unassigned) [II-100, N-(2-(6-(6-(Difluoromethyl)imidazo[1,2-b]pyridazin-3-yl)pyrimidin-4-yl)-2-azaspiro[4.4]nonan-7-yl)methanesulfonamide] | 5.30 to 6.30 | 6.00 to 8.00 | – | – |
| CC1CC(C)(O)C(CNS(C)(=O)=O)CN1c1cc(-c2cnc3ccc(C(F)F)nn23)ncn1 (centres unmarked) [II-365, N-((1-(6-(6-(Difluoromethyl)imidazo[1,2-b]pyridazin-3-yl)pyrimidin-4-yl)-4-hydroxy-4,6-dimethylpiperidin-3-yl)methyl)methanesulfonamide] | < 5.30 | 6.00 to 8.00 | – | – |
| FC(F)c1ccc2ncc(-c3cc(C4CCCN(C5COC5)C4)ncn3)n2n1 (single isomer, unassigned) [II-242, 6-(Difluoromethyl)-3-(6-(1-(oxetan-3-yl)piperidin-3-yl)pyrimidin-4-yl)imidazo[1,2-b]pyridazine] | < 5.30 | 6.00 to 8.00 | – | – |
| CC1C(CNS(C)(=O)=O)CC(F)(F)CN1c1cc(-c2cnc3ccc(C(F)F)nn23)ncn1 (single isomer, unassigned) [II-360, N-((1-(6-(6-(Difluoromethyl)imidazo[1,2-b]pyridazin-3-yl)pyrimidin-4-yl)-5,5-difluoro-2-methylpiperidin-3-yl)methyl)methanesulfonamide] | 5.30 to 6.30 | 6.00 to 8.00 | – | – |
| CS(=O)(=O)NCC1(F)CCCN(c2cc(-c3cnc4ccc(C(F)F)nn34)ccn2)C1 (centres unmarked) [II-139, N-((1-(4-(6-(Difluoromethyl)imidazo[1,2-b]pyridazin-3-yl)pyridin-2-yl)-3-fluoropiperidin-3-yl)methyl)methanesulfonamide] | 5.30 to 6.30 | 6.00 to 8.00 | – | – |
| CS(=O)(=O)NCC1CN(c2cc(-c3cnc4ccc(C(F)F)nn34)ncn2)CC2(CC2)O1 (centres unmarked) [II-375, N-((7-(6-(6-(Difluoromethyl)imidazo[1,2-b]pyridazin-3-yl)pyrimidin-4-yl)-4-oxa-7-azaspiro[2.5]octan-5-yl)methyl)methanesulfonamide] | > 6.30 | > 8.00 | – | – |
| CS(C)(=O)=NC1CCCN(c2cc(-c3cnc4ccc(C(F)F)nn34)ncn2)C1 (centres unmarked) [II-408, ((1-(6-(6-(Difluoromethyl)imidazo[1,2-b]pyridazin-3-yl)pyrimidin-4-yl)piperidin-3-yl)imino)dimethyl-λ^6-sulfanone] | 5.30 to 6.30 | 6.00 to 8.00 | – | – |
| CS(=O)(=O)NCC1CCCN(c2cncc(-c3cnc4ccc(C(F)F)nn34)c2)C1 (centres unmarked) [II-87, N-((1-(5-(6-(Difluoromethyl)imidazo[1,2-b]pyridazin-3-yl)pyridin-3-yl)piperidin-3-yl)methyl)methanesulfonamide] | 5.30 to 6.30 | > 8.00 | – | – |
| CS(=O)(=O)NC1CCCN(c2cc(-c3cnc4ccc(C(F)F)nn34)ncn2)C1 (centres unmarked) [II-362, N-(1-(6-(6-(Difluoromethyl)imidazo[1,2-b]pyridazin-3-yl)pyrimidin-4-yl)piperidin-3-yl)methanesulfonamide] | 5.30 to 6.30 | 6.00 to 8.00 | – | – |
